Results taken from patent US20240132498A1, “CRYSTALLINE FORMS OF 5-(3,4-DIFLUOROBENZYL)-8-((1R,4R)-4-METHYLCYCLOHEXYL)-6,9-DIOXO-2,5,8-TRIAZASPIRO[3.5]NONANE-2-CARBALDEHYDE” (Cytokinetics, Incorporated, priority 2022, published 2024).

Key:
[1] = Projected single-dose CL and Vss values in humans (allometric scaling); conditions: human, allometric scaling of mouse, rat, dog, cynomolgus monkey IV PK
Experimental: Allometric scaling for the prediction of human Clearance and Volume of Distribution was based on interspecies simple allometric scaling of mouse, rat, dog, and cynomolgus monkey intravenous pharmacokinetic parameters (Boxenbaum, J Pharmacokinet Biopharm 10:201-27, 1982). Prediction of human CL was performed by extrapolating pre-clinical species' plasma intravenous clearance. The ‘rule of exponents’ (Mahmood & Balian, Life Sci. 59:579-85, 1996) was examined in this prediction, where it has been proposed that, when the exponent of simple allometry lies between 0.71 and 0.99, a correction factor based on Maximum Life Span (MLP) of this species can be applied and, when the exponent of simple allometry is greater than 1.0, a correction factor based on Brain Weight (BrW) can be applied, or a protein binding correction can be applied when available. In a similar manner, simple allometric scaling was employed to predict human Volume of Distribution. This method has been used successfully for varied drugs (Ward & Smith, Drug Metab Dispos 32:612-19, 2004; McGinnity et al., Curr Drug Metab 8:463-79, 2007).

[2] = Dog single dose pharmacokinetics; assay type: in vivo; conditions: male, plasma, intravenous, beagle dogs; for Vd: read-out: Vss
Experimental: Non-naïve male beagle dogs (8 months −3 years of age, body weight 8-13 kg) were used in this study. All animals for IV administration had free access to food and water; all animals for PO were fasted overnight prior to dosing and were fed approximately 6 hours after dosing. For the animals in PO group, pentagastrin (6.0 μg/kg, i.m.) was administrated 20 minutes before dosing PO formulation and 1.5 hours after the second pentagastrin dosing. The dosing volume was 0.024 mL/kg, the concentration was 250 μg/mL in DMSO/1 N NaOH/PBS. 10 mL of 0.001 N HCl was used to wash the gavage catheter for each animal. The IV dose solution was prepared in 10% DMA/50% PG/40% HPOCD solution (40% w/v aqueous HPOCD) at a concentration of 1.0 mg/mL. The oral dose suspension was prepared by suspending the compound in 0.5% HPMC/0.1% Tween 80 in distilled water at a concentration of 0.2 mg/mL. Concentrations of IV and PO doses were measured at the end of the study. PK parameters were calculated using the nominal dose values if the measured values were within 20% of the nominal values. Blood samples were collected by venipuncture of peripheral veins except the dosing vein at pre-dose, 5 15, 30 min, 1, 2, 4, 6, 8, 24 and 48 h post-dose. Blood samples were centrifuged and resultant plasma was frozen for bioanalysis. Plasma samples were stored at −80° C. before analysis. Plasma samples were analyzed for compound concentrations using the LC/MS/MS method. Briefly, a 50 μL aliquot of each plasma sample was mixed with 100 μL of acetonitrile that contained an internal standard. The mixture was vortexed and centrifuged. Ten (10) μL of the resulting solution was injected onto a reverse-phase C18 column and the resultant peaks detected on a LC/MS/MS equipped with a turbo ionspray ionization source. Sample concentrations below the limit of quantification (BLQ) were treated as zero for PK calculations. PK parameters were estimated from individual animals using noncompartmental analysis of the concentration-time data (Phoenix WinNonLin software, version 64; Pharsight, Mountain View, CA). The elimination rate constant (k) was calculated as the absolute value of the slope of the linear regression of logarithm (log) of the concentration versus time for the last three data points of the concentration-time profiles. Apparent elimination half-life (t1/2) values were calculated as 1n(2)/k. Area under the concentration-time curve (AUC) values were estimated using linear trapezoidal method. AUCt values were calculated from the dosing time to the last measurable concentration. AUC∞ values were calculated as the sum of the corresponding AUC and the ratio of the last detectable concentration divided by k. Plasma clearance (CL) was calculated from Dose/AUC∞. Mean resident time extrapolated to infinity (MRT∞) was estimated by moment analysis. VSS, was calculated from MRT∞×CL. Maximum concentration (Cmax) and time to reach Cmax (tmax) were recorded as observed. As this was a cross-over study, bioavailability was calculated dAUC∞,po/dAUC∞,iv×100% where dAUC was the dose normalized AUC value from the same animal given IV and PO dose. Compounds tested were prepared in accordance with the synthetic procedures described herein.

[3] = Monkey single dose pharmacokinetics; assay type: in vivo; conditions: male, plasma, iv, Cynomolgus Monkey; for Vd: read-out: Vss
Experimental: Non-naïve Male Cynomolgus Monkey (2-5 years of age, body weight 2-5 kg) used in this study were obtained from Topgene Biotechnology. All animals for IV administration had free access to food and water; all animals for PO were fasted overnight prior to dosing and were fed approximately 6 hours after dosing. The IV dose solution was prepared in 10% DMA/50% PG/40% HPOCD solution (40% w/v aqueous HPOCD) at a concentration of 1.0 mg/mL. The oral dose suspension was prepared by suspending the compound in 0.5% HPMC/0.1% Tween 80 in distilled water at a concentration of 0.2 mg/mL. Concentrations of IV and PO doses were measured at the end of the study. PK parameters were calculated using the nominal dose values if the measured values were within 20% of the nominal values. Blood samples were collected by venipuncture of peripheral veins except the dosing vein at pre-dose, 5 15, 30 min, 1, 2, 4, 6, 8, 24 and 48 h post-dose. Blood samples were centrifuged and resultant plasma was frozen for bioanalysis. Plasma samples were stored at −80° C. before analysis. Plasma samples were analyzed for compound concentrations using the LC/MS/MS method. Briefly, a 50 μL aliquot of each plasma sample was mixed with 100 μL of acetonitrile that contained an internal standard. The mixture was vortexed and centrifuged. Ten (10) p L of the resulting solution was injected onto a reverse-phase C18 column and the resultant peaks detected on a LC/MS/MS equipped with a turbo ionspray ionization source. Sample concentrations below the limit of quantification (BLQ) were treated as zero for PK calculations. PK parameters were estimated from individual animals using noncompartmental analysis of the concentration-time data (Phoenix WinNonLin software, version 64; Pharsight, Mountain View, CA). The elimination rate constant (k) was calculated as the absolute value of the slope of the linear regression of logarithm (log) of the concentration versus time for the last three data points of the concentration-time profiles. Apparent elimination half-life (t½) values were calculated as 1n(2)/k. Area under the concentration-time curve (AUC) values were estimated using linear trapezoidal method. AUC values were calculated from the dosing time to the last measurable concentration. AUC∞ values were calculated as the sum of the corresponding AUC and the ratio of the last detectable concentration divided by k. Plasma clearance (CL) was calculated from Dose/AUC.. Mean resident time extrapolated to infinity (MRT∞) was estimated by moment analysis. Vss was calculated from MRT. X CL. Maximum concentration (Cmax) and time to reach Cmax (tmax) were recorded as observed. As this was a cross-over study, bioavailability was calculated dAUC∞,po/dAUC∞,iv ×100% where dAUC was the dose normalized AUC value from the same animal given IV and PO dose. Compounds tested were prepared in accordance with the synthetic procedures described herein.

SMILES	Projected t1/2 [1] [h]	clearance [2] [mL/min/kg]	Vd [2] [L/kg]	clearance [3] [mL/min/kg]	half-life [3] [h]	Vd [3] [L/kg]
O=C1[C@H](C2COC2)N(Cc2ccc(C(F)(F)F)cc2)C(=O)CN1c1ncc(Cl)cc1F [Comparator C, (S)-1-(5-chloro-3-fluoropyridin-2-yl)-3-(oxetan-3-yl)-4-(4-(trifluoromethyl)benzyl)piperazine-2,5-dione, reference compound]	41	4.92	5.91	13.8	11.6	12
CC(=O)N1CC2(C1)C(=O)N(c1ccc(C#N)cc1F)CC(=O)N2Cc1ccc(C(F)(F)F)cc1 [Comparator D, 4-(2-acetyl-6,9-dioxo-5-(4-(trifluoromethyl)benzyl)-2,5,8-triazaspiro[3.5]nonan-8-yl)-3-fluorobenzonitrile]	62	3.55	6.7	6.92	18.1	12.4

Other lines, results leading:

Projected t1/2 [1] [h]	clearance [2] [mL/min/kg]	Vd [2] [L/kg]	clearance [3] [mL/min/kg]	half-life [3] [h]	Vd [3] [L/kg]	SMILES
38.7	1.59	5.2	–	–	–	O=CN1CC2(C1)C(=O)N(c1ccc(F)cc1F)CC(=O)N2Cc1ccc(Cl)cc1 [Comparator A, 5-(4-chlorobenzyl)-8-(2,4-difluorophenyl)-6,9-dioxo-2,5,8-triazaspiro[3.5]nonane-2-carbaldehyde]
51.7	1.49	4.1	3.4	16	4.35	O=CN1CC2(C1)C(=O)N([C@H]1CC[C@H](C(F)F)CC1)CC(=O)N2Cc1ccc(C(F)(F)F)cc1 [Comparator E, 8-((1r,4r)-4-(difluoromethyl)cyclohexyl)-6,9-dioxo-5-(4-(trifluoromethyl)benzyl)-2,5,8-triazaspiro[3.5]nonane-2-carbaldehyde]
28.3	7.57	4.23	11.6	9.94	8.89	C[C@H]1CC[C@H](N2CC(=O)N(Cc3ccc(F)c(F)c3)C3(CN(C=O)C3)C2=O)CC1 [Compound 1, 5-(3,4-difluorobenzyl)-8-((1r,4r)-4-methylcyclohexyl)-6,9-dioxo-2,5,8-triazaspiro[3.5]nonane-2-carbaldehyde]
